This assay addresses Human complement C1s enzyme (Homo sapiens (Human), UniProt P09871). Kind of assay: Human C1s enzyme assay. Particulars: Human C1s enzyme assay of Example 3; read-out: IC50 (Stars). It counts as biochemical. Put shortly:
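Purified serum-derived human C1s (1.16 nM final) preincubated 5 min at room temperature with compound in 50 mM Tris, 1 M NaCl, pH 7.5. Z-L-Lys-SBzl thioester substrate and DTNB added (100 μM each, final); A405 read every 30 s for 30 min. IC50 from nonlinear regression of reaction rates against compound concentration.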
Sequence of Human complement C1s enzyme (P09871 438-688 limits assumed): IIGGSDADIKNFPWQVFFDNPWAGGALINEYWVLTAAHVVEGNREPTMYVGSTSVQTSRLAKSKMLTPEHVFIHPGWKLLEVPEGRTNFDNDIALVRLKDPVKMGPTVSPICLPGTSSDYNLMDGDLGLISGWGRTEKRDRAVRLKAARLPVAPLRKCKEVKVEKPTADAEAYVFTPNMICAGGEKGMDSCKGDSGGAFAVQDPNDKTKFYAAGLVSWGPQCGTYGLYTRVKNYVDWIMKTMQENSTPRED
Sequence of Human complement C1s enzyme (P09871 16-437 partner limits assumed): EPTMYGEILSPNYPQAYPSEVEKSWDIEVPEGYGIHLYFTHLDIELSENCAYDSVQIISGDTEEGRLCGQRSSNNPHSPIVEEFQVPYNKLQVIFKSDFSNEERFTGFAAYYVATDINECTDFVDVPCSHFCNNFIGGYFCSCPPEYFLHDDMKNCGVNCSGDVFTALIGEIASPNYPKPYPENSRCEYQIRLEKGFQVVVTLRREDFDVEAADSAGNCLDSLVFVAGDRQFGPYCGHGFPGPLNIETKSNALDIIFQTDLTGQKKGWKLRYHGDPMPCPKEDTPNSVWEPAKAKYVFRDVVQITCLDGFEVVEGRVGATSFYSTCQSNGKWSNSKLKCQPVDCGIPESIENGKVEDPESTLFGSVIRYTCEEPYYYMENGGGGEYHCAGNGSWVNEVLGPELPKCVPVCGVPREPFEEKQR
For `C[C@@H](NC(=O)[C@@H]1CC2(CN1C(=O)CNC(=O)c1ccc3c(c1)-c1ccccc1C3O)OCCO2)c1cc(C(=N)N)cs1` (stereo partly drawn) [Compound 162, (8S)—N—((R)-1-(4-carbamimidoylthiophen-2-yl)ethyl)-7-((9-hydroxy-9H-fluorene-3-carbonyl)glycyl)-1,4-dioxa-7-azaspiro[4.4]nonane-8-carboxamide], the IC50 is less than 100 nM.

With `C[C@@H](NC(=O)[C@@H]1CC2(CN1C(=O)CNC(=O)c1ccc(-c3ccc(F)cc3)cn1)OCCO2)c1cc(C(=N)N)cs1` [Compound 163, (S)—N—((R)-1-(4-carbamimidoylthiophen-2-yl)ethyl)-7-((5-(4-fluorophenyl)picolinoyl)glycyl)-1,4-dioxa-7-azaspiro[4.4]nonane-8-carboxamide], the IC50 is less than 100 nM.

Consider `C[C@@H](NC(=O)[C@@H]1CC2(CN1C(=O)CNC(=O)c1ccc(-c3ccc(F)cn3)cc1)OCCO2)c1cc(C(=N)N)cs1` [Compound 164, (S)—N—((R)-1-(4-carbamimidoylthiophen-2-yl)ethyl)-7-((4-(5-fluoropyridin-2-yl)benzoyl)glycyl)-1,4-dioxa-7-azaspiro[4.4]nonane-8-carboxamide], for which the IC50 was less than 100 nM.

In the case of `N=C(N)c1csc(CNC(=O)[C@@H]2CC3(CN2C(=O)CNC(=O)c2ccc(-c4ccsc4)cc2)OCCO3)c1` [Compound 165, (S)-N-((4-carbamimidoylthiophen-2-yl)methyl)-7-((4-(thiophen-3-yl)benzoyl)glycyl)-1,4-dioxa-7-azaspiro[4.4]nonane-8-carboxamide], the IC50 is less than 100 nM.

For `C[C@@H](NC(=O)[C@@H]1CC2(CN1C(=O)CNC(=O)c1ccc(-c3cc(F)ccc3F)cc1)OCCO2)c1cc(C(=N)N)cs1` [Compound 166, (S)—N—((R)-1-(4-carbamimidoylthiophen-2-yl)ethyl)-7-((2′,5′-difluoro-[1,1′-biphenyl]-4-carbonyl)glycyl)-1,4-dioxa-7-azaspiro[4.4]nonane-8-carboxamide], the IC50 is less than 100 nM.

Turning to `C[C@@H](NC(=O)[C@@H]1C[C@@H](S(C)(=O)=O)CN1C(=O)CNC(=O)c1ccc(C(F)(F)c2ccccc2)cc1)c1cc(C(=N)N)cs1` [Compound 168, (2S,4R)—N—((R)-1-(4-carbamimidoylthiophen-2-yl)ethyl)-1-((4-(difluoro(phenyl)methyl)benzoyl)glycyl)-4-(methylsulfonyl)pyrrolidine-2-carboxamide], the IC50 is less than 100 nM.

On to `Cc1ccc(-c2ccc(C(=O)NCC(=O)N3CC4(C[C@H]3C(=O)N[C@H](C)c3cc(C(=N)N)cs3)OCCO4)cc2)c(C)c1` [Compound 169, (S)—N—((R)-1-(4-carbamimidoylthiophen-2-yl)ethyl)-7-((2′,4′-dimethyl-[1,1′-biphenyl]-4-carbonyl)glycyl)-1,4-dioxa-7-azaspiro[4.4]nonane-8-carboxamide], for which the IC50 was less than 100 nM.

On to `C[C@@H](NC(=O)[C@@H]1CC2(CN1C(=O)CNC(=O)c1ccc3[nH]c4ccccc4c3c1)OCCO2)c1cc(C(=N)N)cs1` [Compound 170, (S)-7-((9H-carbazole-3-carbonyl)glycyl)-N—((R)-1-(4-carbamimidoylthiophen-2-yl)ethyl)-1,4-dioxa-7-azaspiro[4.4]nonane-8-carboxamide], for which the IC50 is less than 100 nM.

Regarding `C[C@@H](NC(=O)[C@@H]1C[C@H](c2nccs2)CN1C(=O)CNC(=O)c1ccc(Oc2ccc(F)cc2)cc1)c1cc(C(=N)N)cs1` [Compound 171, (2S,4S)—N—((R)-1-(4-carbamimidoylthiophen-2-yl)ethyl)-1-((4-(4-fluorophenoxy)benzoyl)glycyl)-4-(thiazol-2-yl)pyrrolidine-2-carboxamide], the IC50 was less than 100 nM.

On to `C[C@@H](NC(=O)[C@@H]1C[C@H](c2nccs2)CN1C(=O)CNC(=O)c1ccc2c(c1)-c1ccccc1C2(F)F)c1cc(C(=N)N)cs1` [Compound 172, (2S,4S)—N—((R)-1-(4-carbamimidoylthiophen-2-yl)ethyl)-1-((9,9-difluoro-9H-fluorene-3-carbonyl)glycyl)-4-(thiazol-2-yl)pyrrolidine-2-carboxamide], for which the IC50 is less than 100 nM.

Take `Cc1cnc(-c2ccc(C(=O)NCC(=O)N3CC4(C[C@H]3C(=O)N[C@H](C)c3cc(C(=N)N)cs3)OCCO4)cc2)c(C)c1` [Compound 173, (S)—N—((R)-1-(4-carbamimidoylthiophen-2-yl)ethyl)-7-((4-(3,5-dimethylpyridin-2-yl)benzoyl)glycyl)-1,4-dioxa-7-azaspiro[4.4]nonane-8-carboxamide]: the IC50 is less than 100 nM.

For the compound `C[C@@H](NC(=O)[C@@H]1CC2(CN1C(=O)CNC(=O)c1ccc(-c3ccc(Cl)cc3F)cc1)OCCO2)c1cc(C(=N)N)cs1` [Compound 174, (S)—N—((R)-1-(4-carbamimidoylthiophen-2-yl)ethyl)-7-((4′-chloro-2′-fluoro-[1,1′-biphenyl]-4-carbonyl)glycyl)-1,4-dioxa-7-azaspiro[4.4]nonane-8-carboxamide], the IC50 is less than 100 nM.

Regarding `C[C@@H](NC(=O)[C@@H]1CC2(CN1C(=O)CNC(=O)c1ccc(-c3ccc(F)cc3)c(F)c1)OCCO2)c1cc(C(=N)N)cs1` [Compound 175, (S)—N—((R)-1-(4-carbamimidoylthiophen-2-yl)ethyl)-7-((2,4′-difluoro-[1,1′-biphenyl]-4-carbonyl)glycyl)-1,4-dioxa-7-azaspiro[4.4]nonane-8-carboxamide], the IC50 was less than 100 nM.

In the case of `C[C@@H](NC(=O)[C@@H]1CC2(CN1C(=O)CNC(=O)c1ccc(-c3ccc(F)cc3Cl)cc1)OCCO2)c1cc(C(=N)N)cs1` [Compound 176, (S)—N—((R)-1-(4-carbamimidoylthiophen-2-yl)ethyl)-7-((2′-chloro-4′-fluoro-[1,1′-biphenyl]-4-carbonyl)glycyl)-1,4-dioxa-7-azaspiro[4.4]nonane-8-carboxamide], the IC50 was less than 100 nM.

With `Cc1cccc2c1-c1cc(C(=O)NCC(=O)N3CC4(C[C@H]3C(=O)N[C@H](C)c3cc(C(=N)N)cs3)OCCO4)ccc1C2(F)F` [Compound 177, (S)—N—((R)-1-(4-carbamimidoylthiophen-2-yl)ethyl)-7-((9,9-difluoro-5-methyl-9H-fluorene-3-carbonyl)glycyl)-1,4-dioxa-7-azaspiro[4.4]nonane-8-carboxamide], the IC50 is less than 100 nM.

As for `C[C@@H](NC(=O)[C@@H]1C[C@@H](S(C)(=O)=O)CN1C(=O)CNC(=O)c1ccc2c(c1)-c1ccccc1C2(C)C)c1cc(C(=N)N)cs1` [Compound 178, (2S,4R)—N—((R)-1-(4-carbamimidoylthiophen-2-yl)ethyl)-1-((9,9-dimethyl-9H-fluorene-3-carbonyl)glycyl)-4-(methylsulfonyl)pyrrolidine-2-carboxamide], the IC50 was less than 100 nM.

`Cc1cc(C(=O)NCC(=O)N2CC3(C[C@H]2C(=O)N[C@H](C)c2cc(C(=N)N)cs2)OCCO3)cc2c1C(F)(F)c1ccccc1-2` [Compound 179, (S)—N—((R)-1-(4-carbamimidoylthiophen-2-yl)ethyl)-7-((9,9-difluoro-1-methyl-9H-fluorene-3-carbonyl)glycyl)-1,4-dioxa-7-azaspiro[4.4]nonane-8-carboxamide]: the IC50 was less than 100 nM.

Take `Cc1ccc2c(c1)-c1cc(C(=O)NCC(=O)N3CC4(C[C@H]3C(=O)N[C@H](C)c3cc(C(=N)N)cs3)OCCO4)ccc1C2(F)F` [Compound 180, (S)—N—((R)-1-(4-carbamimidoylthiophen-2-yl)ethyl)-7-((9,9-difluoro-6-methyl-9H-fluorene-3-carbonyl)glycyl)-1,4-dioxa-7-azaspiro[4.4]nonane-8-carboxamide]: the IC50 was less than 100 nM.

As to `C[C@@H](NC(=O)[C@@H]1CC2(CN1C(=O)CNC(=O)c1cc(F)c(-c3ccc(F)cc3)cn1)OCCO2)c1cc(C(=N)N)cs1` [Compound 181, (S)—N—((R)-1-(4-carbamimidoylthiophen-2-yl)ethyl)-7-((4-fluoro-5-(4-fluorophenyl)picolinoyl)glycyl)-1,4-dioxa-7-azaspiro[4.4]nonane-8-carboxamide], the IC50 was less than 100 nM.

Regarding `Cc1cccc2c1C(F)(F)c1ccc(C(=O)NCC(=O)N3CC4(C[C@H]3C(=O)N[C@H](C)c3cc(C(=N)N)cs3)OCCO4)cc1-2` [Compound 182, (S)—N—((R)-1-(4-carbamimidoylthiophen-2-yl)ethyl)-7-((9,9-difluoro-8-methyl-9H-fluorene-3-carbonyl)glycyl)-1,4-dioxa-7-azaspiro[4.4]nonane-8-carboxamide], the IC50 was less than 100 nM.

Consider `CS(=O)(=O)c1ccc(-c2ccc(C(=O)NCC(=O)N3CC4(C[C@H]3C(=O)NCc3cc(C(=N)N)cs3)OCCO4)cc2)cc1` [Compound 183, (S)—N-((4-carbamimidoylthiophen-2-yl)methyl)-7-((4′-(methylsulfonyl)-[1,1′-biphenyl]-4-carbonyl)glycyl)-1,4-dioxa-7-azaspiro[4.4]nonane-8-carboxamide], for which the IC50 is less than 100 nM.

For `Nc1csc(-c2csc(CNC(=O)[C@@H]3CC4(CN3C(=O)CNC(=O)c3ccc(Oc5ccc(F)cc5)cc3)OCCO4)c2)n1` [Compound 184, (S)—N-((4-(4-aminothiazol-2-yl)thiophen-2-yl)methyl)-7-((4-(4-fluorophenoxy)benzoyl)glycyl)-1,4-dioxa-7-azaspiro[4.4]nonane-8-carboxamide], the IC50 is greater than 1000 nM.

In the case of `Nc1cnc(-c2csc(CNC(=O)[C@@H]3CC4(CN3C(=O)CNC(=O)c3ccc(Oc5ccc(F)cc5)cc3)OCCO4)c2)s1` [Compound 185, (S)—N-((4-(5-aminothiazol-2-yl)thiophen-2-yl)methyl)-7-((4-(4-fluorophenoxy)benzoyl)glycyl)-1,4-dioxa-7-azaspiro[4.4]nonane-8-carboxamide], the IC50 is less than 100 nM.

Consider `Nc1nc(-c2csc(CNC(=O)[C@@H]3CC4(CN3C(=O)CNC(=O)c3ccc(Oc5ccc(F)cc5)cc3)OCCO4)c2)cs1` [Compound 186, (S)—N-((4-(2-aminothiazol-4-yl)thiophen-2-yl)methyl)-7-((4-(4-fluorophenoxy)benzoyl)glycyl)-1,4-dioxa-7-azaspiro[4.4]nonane-8-carboxamide], for which the IC50 was greater than 1000 nM.

Source of the values: patent US20250346585A1 (Alexion Pharmaceuticals, Inc., priority 2022, published 2025).
